The values that follow are results of earlier work, collected in patent US20110104279A1, “HEALING POWDER AND METHOD OF USE THEREOF” (priority 2009, published 2011).

For series [1], the system named is full thickness wounds in the backs of pigs. Conditions: wounds 25 mm square, 9 mm deep, packed and covered with Opsite.
Series [2] concerns acute mediastinitis wounds. Conditions: 19 patients, wounds packed every 3 to 4 hours.

For the molecule `N=C(NCCCCCCNC(=N)NC(=N)Nc1ccc(Cl)cc1)NC(=N)Nc1ccc(Cl)cc1.O=C(O)[C@H](O)[C@@H](O)[C@H](O)[C@H](O)CO.O=C(O)[C@H](O)[C@@H](O)[C@H](O)[C@H](O)CO` [chlorhexidine gluconate], the “wound healing compared with wounds covered with Opsite alone” value in series [1] was “delayed healing”.
Consider `OC[C@H]1O[C@@](CO)(O[C@H]2O[C@H](CO)[C@@H](O)[C@H](O)[C@H]2O)[C@@H](O)[C@@H]1O` [granular sugar, sucrose], for which the “average time of treatment to near complete debridement, granulation tissue formation and eradication of bacterial infection” value in series [2] is listed as 7.6 days.
